Experimental data published in patent publication US20030149306A1, “Process for the preparation of polymorph of 4-(aryl)-1,2,3,4-tetrahydro-1-naphthale-namine derivative” (priority 2000, published 2003).
“Also recorded” adds a separate entry of the source. Counter-ions that a name gives are not always drawn.

Columns and labels:
[1] = as compared to Form I; cited from earlier work
[2] = compared among Forms I to V; cited from earlier work
[3] = from a pharmaceutical formulation; cited from earlier work
[4] = solid-state stability of Form V (Infrared spectrum KBr and X-ray diffractogram) under storage, grinding and heating; type: physicochemical
Method: For example, it was stable for 3 months at 40° C. and 75% relative humidity or when subjected to grinding in a pestle and mortar or when heated upto 140° C. for 3 hours.
No change in Infrared spectrum (KBr) and X-ray diffractogram was observed after 3 months at 40° C. and 75% relative humidity or when subjected to grinding in a pestle and mortar or when heated upto 140° C. for 3 hours.

**Q.** Which bioavailability [1] does the source give for `CN[C@H]1CC[C@@H](c2ccc(Cl)c(Cl)c2)c2ccccc21` [Example T1, (1S, 4S) N-methyl-4-(3,4-dichlorophenyl)-1,2,3,4-tetrahydro-1-naphthalenamine] here?
**A.** The bioavailability was “much-improved bioavailability”.

**Q.** Which “thermodynamic stability among crystalline forms” value [2] does the source give for `CN[C@H]1CC[C@@H](c2ccc(Cl)c(Cl)c2)c2ccccc21` [Form I, hydrochloride salt of (1S,4S) N-methyl-4-(3,4-dichlorophenyl)-1,2,3,4-tetrahydro-1-naphthalenamine] here?
**A.** Its value is “most thermodynamically stable form; also recorded: most stable crystalline form”.

**Q.** What about the “dissolution rate with respect to the desired bioavailability” value [3] of the same compound?
**A.** Its value is “dissolves too slowly”.

**Q.** Which “stability (change in Infrared spectrum (KBr) and X-ray diffractogram)” value ([4]; 3 months at 40° C. and 75% relative humidity) does the source give for `CN[C@H]1CC[C@@H](c2ccc(Cl)c(Cl)c2)c2ccccc21` [Form V, hydrochloride salt of (1S,4S) N-methyl-4-(3,4-dichlorophenyl)-1,2,3,4-tetrahydro-1-naphthalenamine] here?
**A.** Its value is “stable”.

**Q.** What about the “stability (change in Infrared spectrum (KBr) and X-ray diffractogram)” value ([4]; 3 months at 40° C. and 75% relative humidity, listed as Example 1) of the same compound?
**A.** Its value is “No change”.

**Q.** And the “stability (change in Infrared spectrum (KBr) and X-ray diffractogram)” value ([4]; heated upto 140° C. for 3 hours)?
**A.** Its value is “stable”.

**Q.** And the “stability (change in Infrared spectrum (KBr) and X-ray diffractogram)” value ([4]; heated upto 140° C. for 3 hours, listed as Example 1)?
**A.** The value was “No change”.

**Q.** And the “stability (change in Infrared spectrum (KBr) and X-ray diffractogram)” value ([4]; subjected to grinding in a pestle and mortar)?
**A.** Its value is “stable”.

**Q.** And the “stability (change in Infrared spectrum (KBr) and X-ray diffractogram)” value ([4]; subjected to grinding in a pestle and mortar, listed as Example 1)?
**A.** Its value is “No change”.
